In publication PMC5048182, “Structure and specificity of the Type VI secretion system ClpV-TssC interaction in enteroaggregative Escherichia coli” (Scientific Reports, 2016):
Entries after “also recorded” stand apart in the source; their conditions may differ.

Tested on: ClpV1-Nt (ClpV1 N-terminal domain)
Test: Microscale thermophoresis (MST), binding of TssC N-terminal peptides to ClpV1-Nt
Set-up: species or system enteroaggregative Escherichia coli
Conditions: 200 nM labeled ClpV1-Nt vs up to 500 μM peptide, 25 mM Tris-HCl pH 7.5, 200 mM NaCl, glycerol 5%, 0.05% Tween-20, triplicate
Protocol: E. coli BL21 (DE3) pLysS cells carrying the pETG20A-ClpV1-Nt plasmid were grown at 37 °C in TB medium (1.2% peptone, 2.4% yeast extract, 72 mM K2HPO4, 17 mM KH2PO4, and 0.4% glycerol). Expression of clpV1-Nt was induced at A600 = 0.6 with 0.5 mM IPTG for 18 hours at 25 °C. Cells were then resuspended in lysis buffer (50 mM Tris-HCl pH 8.0, 300 mM NaCl, 1 mM EDTA, 0.5 mg/mL lysozyme, 1mM phenylmethylsulfonyl fluoride), submitted to several freeze-thawing cycles and sonicated after the addition of 20 μg/mL DNase and 20 mM MgCl2. Pellet and soluble fraction were separated by centrifugation for 30 min at 16,000 × g. The soluble fraction containing ClpV1-Nt was loaded onto a 5-mL Ni^2+ affinity column (HisTrap™ FF) using an ÄKTA Explorer apparatus (GE healthcare) and the immobilized proteins were eluted in 50 mM Tris-HCl pH8.0, 300 mM NaCl supplemented with 250 mM imidazole. The protein solution was desalted on a HiPrep 26/10 column (Sephadex^TM G-25, Amersham Biosciences), and ClpV1-Nt was obtained by cleavage using 2 mg of TEV protease for 18 hours at 4 °C and collected in the flow-through of a 5-mL Nickel column. The protein was concentrated using the centricon technology (Millipore, 10-kDa cut-off). […]
Microscale thermophoresis experiments were performed using a Monolith NT.115 apparatus (NanoTemper). […] Each data point was measured in triplicate. […]

Sequence: ATDDCLEEIINNTRA [TssC2 peptide, TssC2 (residues 15–29), […], synthesized by Genscript]
- binding to ClpV1-Nt (in words): no binding; also recorded: no interaction
